Experimental data from patent US7008936B2, “Combination of epothilone analogs and chemotherapeutic agents for the treatment of proliferative diseases” (Bristol-Myers Squibb Company, priority 2002, dated 2006).

Tests used:
advanced cancer = assay: Phase I study of Compound 1 in combination with carboplatin in patients with advanced cancer, day 1 and split day 1/8 schedules (Example 2)
Experimental: Compound 1 was assessed in Phase I studies in combination with other chemotherapeutic agents. Compound 1 was given as a 60-minute infusion, 30 minutes prior to a 30-minute carboplatin infusion on day 1 every three weeks (or 21 days). Pharmacokinetic samples were taken during the first cycle. Twenty-five (25) patients were treated on this schedule at 4 dose levels (Compound 1 doses of 30 mg/m^2 or 40 mg/m^2 with carboplatin doses of […], or AUC 5 or 6).
A further 14 patients were recruited onto an amended schedule with Compound 1 doses being split and administered on days 1 and 8 every three weeks (or 21 days) and carboplatin being administered on day 1.

advanced solid tumors = assay: Compound 1 followed by carboplatin IV every 3 weeks in patients with advanced cancer (Example 1)
Experimental: Compound 1 followed by carboplatin was given intravenously every 3 weeks to patients with advanced solid tumors treated with ≦2 prior chemotherapy regimens. Pharmacokinetics of both drugs were measured on the first course. Twenty-five (25) patients were treated at four dose levels—combining Compound 1 (30 or 40 mg/m^2) with […] or AUC 5 or 6 (Calvert formula; Calvert et al., J. Clin. Oncol., 1989, 7, 1748–1756) of carboplatin. A total of 91 courses were given.

[1] = system: paclitaxel-sensitive (A2780, HCT116 and LS174T) and paclitaxel-resistant human colon tumors (HCT116/VM46), ovarian carcinoma (Pat-7 and A2780Tax) and breast …; assay: Preclinical pharmacology studies, antitumor activity in tumor models; assay type: in vivo
[2] = Compound 1 plasma levels (pharmacokinetic samples, first cycle) in Phase I combination study; assay type: in vivo, human; details: patients, IV infusion, with carboplatin
Text: Pharmacokinetic samples were taken during the first cycle.

## C/C(=C\c1csc(C)n1)[C@@H]1C[C@@H]2O[C@]2(C)CCC[C@H](C)[C@H](O)[C@@H](C)C(=O)C(C)(C)[C@@H](O)CC(=O)N1 (relative stereo) [Compound 1, [1S-1R*,3R*(E),7R*,10S*,11R*,12R*,16S*]]-7,11-dihydroxy-8,8,10,12,16-pentamethyl-3-[1-methyl-2-(2-methyl-4-thiazolyl)ethenyl]-4-aza-17-oxabicyclo[14.1.0]heptadecane-5,9-dione]
Advanced cancer; Compound 1 + carboplatin
  patients showing disease stabilization for more than two months: 48%
Advanced cancer; Compound 1 + carboplatin, 39 patients over 7 dose levels
  major toxicities: myelosuppression, myalgia and peripheral neuropathy
Advanced cancer; Compound 1 + carboplatin, 39 patients, 2 breast, neuro-endocrine, unknown primary carcinomas and mesothelioma
  partial responses: 5 patients
Advanced cancer; Compound 1 on days 1 and 8 every three weeks with carboplatin AUC 6 on day 1
  dose at which DLT was observed, split schedule: 25 mg/m^2
Advanced cancer; Compound 1 day 1 every three weeks with carboplatin AUC 6, myelosuppression as major toxicity
  dose at which dose limiting toxicity (DLT) occurred: 40 mg/m^2
Advanced cancer; peripheral neuropathy reported in all these patients, 39 patients treated
  patients who withdrew from the study because of study drug toxicity: Eleven
Advanced solid tumors; Compound 1 30 or 40 mg/m^2 + carboplatin AUC 5 or 6, IV every 3 weeks, 25 patients, breast, neuroendocrine and unknown primary carcinomas
  confirmed partial responses: 3/25
Advanced solid tumors; Compound 1 + carboplatin every 3 weeks, 25 patients treated
  patients with disease stabilization and clinical benefit from treatment: 12 patients
Advanced solid tumors; human, in vivo
  dose at which CTC grade 4 neutropenia was dose limiting: 40 mg/m^2
Advanced solid tumors; with carboplatin AUC 5 (Calvert formula), every 3 weeks
  maximum tolerated dose of Compound 1: 40 mg/m^2
[1]; oral administration, comparable to parenteral administration
  oral efficacy: orally efficacious
[1]; paclitaxel-sensitive and paclitaxel-resistant tumor models
  antitumor activity: very impressive and broad spectrum of antitumor activity
[2]; human
  half-life: ~30 h
[2]
  Cmax and AUC: increase with dose
  volume of distribution: high
